Measured values published in patent US20070259893A1, “Pyrazolopyrimidines” (BAYER CROPSCIENCE AKTIENGESELLSCHAFT, priority 2003, published 2007).

Tests used:
Botrytis cinerea = test: Botrytis test (bean)/protective; format: in vivo; conditions: bean plants, protective spray, application rate 500 g/ha, evaluated 2 days after inoculation
Procedure: Botrytis Test (Bean)/Protective
Solvents: 24.5 parts by weight of acetone
• 24.5 parts by weight of dimethylacetamide Emulsifier: 1.0 part by weight of alkylaryl polyglycol ether
To produce a suitable preparation of active compound, 1 part by weight of active compound is mixed with the stated amount of solvents and emulsifier, and the concentrate is diluted with water to the desired concentration.
To test for protective activity, young plants are sprayed with the preparation of active compound at the stated application rate. After the spray coating has dried on, 2 small pieces of agar colonized by Botrytis cinerea are placed onto each leaf. The inoculated plants are placed in a dark chamber at about 20° C. and 100% relative atmospheric humidity.
The size of the infected areas on the leaves is evaluated 2 days after the inoculation. 0% means an efficacy which corresponds to that of the control, whereas an efficacy of 100% means that no infection is observed.

logP by HPLC = format: physicochemical

Row | chromatographic logP (logP by HPLC) | SMILES | efficacy (Botrytis cinerea)
1 | 5.08 | CC(C)C(C)Nc1c(-c2ccc(F)cc2Cl)c(Cl)nc2c(C(=O)C(F)(F)F)cnn12 (stereo not shown) [Example 2] | –
2 | 4.92 | CC(Nc1c(-c2ccc(F)cc2Cl)c(Cl)nc2c(C#N)cnn12)C(C)(C)C (stereo not shown) [Example 4] | –

Row | SMILES | chromatographic logP (logP by HPLC) | efficacy (Botrytis cinerea)
3 | CC1CCN(c2c(-c3ccc(F)cc3Cl)c(Cl)nc3c(C(=O)C(F)(F)F)cnn23)CC1 [Example 1, 3-trifluoroacetyl-5-chloro-6-(2-chloro-4-fluorophenyl)-7-(4-methylpiperidino)-pyrazolo[1,5-a]pyrimidine] | 5.44 | more than 90%
